Here are results for one compound from patent US10106523B2, “Amide compound” (ASTELLAS PHARMA INC., priority 2014, dated 2018).

Assay [1] has as its system 5/6 nephrectomy rats with chronic renal failure. The assay can be described thus: Effect on renal function of 5/6 nephrectomy (5/6 Nx) rats with chronic renal failure. The class given is in vivo, rat. The settings on record: 5/6 Nx Wistar rats, 0.2 mg/kg po once per day for 6 weeks. As to the method:
Test Example 8: Test for Investigation of Effect on Renal Function of 5/6 Nephrectomy (5/6 Nx) of Rats with Chronic Renal Failure
Wistar rats (male, 8-Week-old) were used for the test. Two-thirds of the left kidney was removed under pentobarbital anesthesia, and after 1 week, the entire right kidney was nephrectomized (5/6 Nx). After 2 weeks from 5/6 Nx, the protein concentrations in urine samples obtained by urine collection for 24 hours were measured using a Bio-Rad Protein assay kit, and the creatinine concentration in urine was measured using Determiner L CRE (Kyowa Medex Co., Ltd.)). The urinary protein-creatinine ratio (UPCR) was calculated, and a group (n=12) not treated with the test compound and a group (n=12) treated with the test compound were allocated without a bias in UPCR. The test compound suspended in a 0.5% MC solution was orally administered to the group treated with the test compound at a dose of 0.2 mg/kg once per day for 6 weeks (5 mL/kg). […] Urine was collected for 24 hours from the completion of the final administration, and using the calculated UPCR as an indicator, the improvement effect of the test compound on the nephropathy of the rat with chronic renal failure was investigated. The inhibitory rate of UPCR of the group treated with the test compound when the UPCR value of the group not treated with the test compound was taken as 100% was determined.

The target in the next assay is T1, human EP4 receptor (Homo sapiens, UniProt P35408).
T1 construct: purchased Chemicon
In words: Human EP4 receptor antagonistic action by measurement of cAMP amount in human Jurkat cells. The class given is cell-based. Particulars: PGE2 100 nmol/L, average of three experiments, read-out: IC50 value with respect to the cAMP production action by PGE2 in human Jurkat cells. The method, then: Test Example 3: Evaluation Test of Human EP4 Receptor Antagonistic Action by Measurement of cAMP Amount in Human Jurkat Cells
Jurkat cells (derived from human leukemia T lymphoma) were cultured under the conditions of 37° C. and 5% CO2, using an RPMI1640 culture medium (product No. 11879020, Invitrogen Inc.) with 10% fetal bovine serum (FBS) added. After proliferation up to semiconfluency, indomethacin having a final concentration of […] was added thereto, and the cells were further cultured for 18 hours. These cells were collected in a 15 mL Spitz tube, prepared at 1×10^6 cells/mL using a Cell Banker (Mitsubishi Kagaku Iatron), and stored at −80° C. […]
A cAMP HiRange kit (Cisbio international) was used for cAMP measurement. […] After incubation, the fluorescence intensity of the cryptate at 620 nm and the fluorescence intensity of the d2 at 665 nm were measured using ARVO1420 (PerkinElmer). The cAMPs at 280, 70, 17.5, 4.38, 1.09, 0.27, and 0.068 nmol/L were added to each well and the fluorescence intensity was measured as described above to create a standard curve. […] An average value was calculated from three experiment results.

For the next assay, the target named is rat EP4 receptor (Rattus norvegicus, UniProt P43114). The assay can be described thus: In vivo rat EP4 receptor antagonistic action (plasma TNF-α after LPS and EP4 agonist ONO-AE1-437). On the set-up: from tissue; host or cells: whole animal (SD rat). The settings on record: SD rats, 0.03 mg/kg po, ONO-AE1-437 0.01 mg/kg sc, LPS 0.01 mg/kg iv. As to the method: Test Example 5: Evaluation Test of In Vivo Rat EP4 Receptor Antagonistic Action
SD rats (male, 6-week old) under non-fasting conditions were used for the test. A test compound dissolved in a mixed solution of PEG 400: 20% Tween 80: 1 mol/L aqueous NaHCO3 solution=1:4:5 was orally administered (po) to the rat at a dose of 0.03 mg/kg (5 mL/kg). After 1 hour, an active metabolite (ONO-AE1-437 (CAS No. 256382-23-7)) of an EP4 agonist ONO-4819 dissolved in physiological saline was subcutaneously administered (sc) to the back of the rat at a dose of 0.01 mg/kg (5 mL/kg). After 30 minutes, Lipopolysaccharide (LPS, 0.01 mg/kg) was administered to the tail vein (2 mL/kg), and after 60 minutes, about 0.5 mL of blood was collected in a heparin-containing tube under anesthesia. The blood sample was centrifuged (1000×g, 10 minutes, 4° C.) to separate the plasma. The TNF-α concentration in the rat plasma was measured by an ELISA kit (DuoSet ELISA, R&D Systems). An inhibitory rate of the test compound group (n=5) with respect to the TNF-α production inhibitory action by the EP4 agonist was calculated by taking the TNF-α concentration of the group (n=5) not treated with ONO-AE1-437 as 100% and taking the TNF-α concentration of the group (n=5) treated with ONO-AE1-437 as 0%.

Sequence of rat EP4 receptor (P43114 whole entry): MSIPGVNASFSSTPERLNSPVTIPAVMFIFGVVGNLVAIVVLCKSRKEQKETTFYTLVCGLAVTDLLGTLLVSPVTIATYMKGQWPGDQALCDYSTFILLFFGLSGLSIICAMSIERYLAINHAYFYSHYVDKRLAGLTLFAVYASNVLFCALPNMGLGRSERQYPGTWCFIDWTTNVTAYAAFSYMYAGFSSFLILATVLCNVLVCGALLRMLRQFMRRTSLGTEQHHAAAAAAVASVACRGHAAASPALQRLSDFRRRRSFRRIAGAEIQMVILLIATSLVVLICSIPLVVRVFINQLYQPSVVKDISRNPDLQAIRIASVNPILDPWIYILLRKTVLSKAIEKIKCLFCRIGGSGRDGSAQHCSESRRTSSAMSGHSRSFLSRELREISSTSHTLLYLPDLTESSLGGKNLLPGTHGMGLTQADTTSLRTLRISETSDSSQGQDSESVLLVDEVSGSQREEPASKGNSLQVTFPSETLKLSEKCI
T1 sequence (P35408 whole entry): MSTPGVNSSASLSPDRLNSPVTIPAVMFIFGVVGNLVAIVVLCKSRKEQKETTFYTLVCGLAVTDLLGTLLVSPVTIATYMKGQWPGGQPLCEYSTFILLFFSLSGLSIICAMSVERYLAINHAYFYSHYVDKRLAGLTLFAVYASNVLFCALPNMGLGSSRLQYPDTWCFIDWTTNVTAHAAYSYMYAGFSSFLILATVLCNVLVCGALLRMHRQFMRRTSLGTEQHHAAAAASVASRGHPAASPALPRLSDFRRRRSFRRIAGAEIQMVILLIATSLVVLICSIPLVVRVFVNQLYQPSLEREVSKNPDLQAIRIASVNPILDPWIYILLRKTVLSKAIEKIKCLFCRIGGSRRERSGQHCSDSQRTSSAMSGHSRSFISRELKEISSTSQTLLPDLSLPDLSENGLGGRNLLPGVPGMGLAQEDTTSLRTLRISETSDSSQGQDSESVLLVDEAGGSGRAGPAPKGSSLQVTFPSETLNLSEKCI

In the case of `Cc1nn(Cc2cc3ccccc3cn2)c(C(=O)N[C@@H](C)c2ccc(C(=O)O)cc2)c1Br` [Compound A, 4-[(1S)-1-({[4-bromo-1-(isoquinolin-3-ylmethyl)-3-methyl-1H-pyrazol-5-yl]carbonyl}amino)ethyl]benzoic acid], the “Inhibitory rate of UPCR (urinary protein-creatinine ratio)” value in assay [1] is 47%. In addition, the IC50 at human EP4 receptor is 0.16 nM. The “Inhibition of the TNF-α production inhibitory action of the EP4 agonist ONO-AE1-437” value on rat EP4 receptor is 38%.
